# Data: patent US7381824B2 (Agouron Pharmaceuticals, Inc., priority 2003, dated 2008)
# Biological target: T1, human vascular endothelial growth factor receptor 2 (VEGF-R2) (Homo sapiens, UniProt P35968, DEL940-989/E990V)
# T1 construct: VEGF-R2D50 contains residues 806-939 and 990-1171; made in house; host or cells: baculovirus/insect cell system
# Experiment: VEGF-R2 coupled spectrophotometric assay (FLVK, unphosphorylated VEGF-R2D50)
# Type: biochemical
# Settings: unphosphorylated VEGF-R2D50 (FLVK)
# Description: This construct determines the ability of a test compound to inhibit tyrosine kinase activity. A construct (VEGF-R2D50) of the cytosolic domain of human vascular endothelial growth factor receptor 2 (VEGF-R2) lacking the 50 central residues of the 68 residues of the kinase insert domain was expressed in a baculovirus/insect cell system. Of the 1356 residues of full-length VEGF-R2, VEGF-R2D50 contains residues 806-939 and 990-1171, and also one point mutation (E990V) within the kinase insert domain relative to wild-type VEGF-R2. Autophosphorylation of the purified construct was performed by incubation of the enzyme at a concentration of […] in the presence of 3 mM ATP and 40 mM MgCl2 in 100 mM HEPES, pH 7.5, containing 5% glycerol and 5 mM DTT, at 4° C. for 2 h. […] See Parast et al., Biochemistry, 37, 16788-16801 (1998).
# VEGF-R2 Assay: Coupled Spectrophotometric (FLVK-P) Assay
# The production of ADP from ATP that accompanies phosphoryl transfer was coupled to oxidation of NADH using phosphoenolpyruvate (PEP) and a system having pyruvate kinase (PK) and lactic dehydrogenase (LDH). The oxidation of NADH was monitored by following the decrease of absorbance at 340 nm (e340=6.22 cm^−1 mM^−1) using a Beckman DU 650 spectrophotometer. Assay conditions for phosphorylated VEGF-R2D50 (indicated as FLVK-P in the tables below) were the following: 1 mM PEP; […] NADH; 50 units of LDH/mL; 20 units of PK/mL; 5 mM DTT; 5.1 mM poly(E4Y1); 1 mM ATP; and 25 mM MgCl2 in 200 mM HEPES, pH 7.5. Assay conditions for unphosphorylated VEGF-R2D50 (indicated as FLVK in the tables) were the following: 1 mM PEP; […] NADH; 50 units of LDH/mL; 20 units of PK/mL; 5 mM DTT; 20 mM poly(E4Y1); 3 mM ATP; and 60 mM MgCl2 and 2 mM MnCl2 in 200 mM HEPES, pH 7.5. Assays were initiated with 5 to 40 nM of enzyme. K1 values were determined by measuring enzyme activity in the presence of varying concentrations of test compounds. The percent inhibition at 50 nM (% inhibition @ 50 nM) was determined by linear least-squares regression analysis of absorbance as a function of time. The binding inhibitions were fitted to equation as described by Morrison. The data were analyzed using Enzyme Kinetic and Kaleidagraph software.
# T1 sequence (P35968 with tags, fused parts or gaps DEL940-989/E990V limits assumed): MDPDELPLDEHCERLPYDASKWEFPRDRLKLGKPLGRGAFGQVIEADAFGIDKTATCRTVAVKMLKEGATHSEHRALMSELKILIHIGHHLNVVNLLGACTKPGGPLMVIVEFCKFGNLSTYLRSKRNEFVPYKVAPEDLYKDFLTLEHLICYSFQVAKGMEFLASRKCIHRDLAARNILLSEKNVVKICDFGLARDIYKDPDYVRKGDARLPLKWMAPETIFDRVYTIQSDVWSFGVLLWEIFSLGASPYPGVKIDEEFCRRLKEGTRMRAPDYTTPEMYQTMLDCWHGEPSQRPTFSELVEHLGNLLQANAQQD
row,Compound,Ki
1,"Cc1oc2cc(Oc3ccnc4cc(OCCO)ccc34)ccc2c1C(=O)NC1CC1 [Example 92, N-cyclopropyl-2-methyl-6-({7-[2-hydroxy-ethoxy]quinolin-4-yl}oxy)-1-benzofuran-3-carboxamide]",< 1 nM
2,"Cc1oc2cc(Oc3ccnc4cc(OCCNC5CC5)ccc34)ccc2c1C(=O)NC1CC1 [Example 96, N-cyclopropyl-6-({7-[2-(cyclopropylamino)ethoxy]quinolin-4-yl}oxy)-2-methyl-1-benzofuran-3-carboxamide]",< 1 nM
3,CNC(=O)c1c(C)oc2cc(Oc3ccnc4cc(-c5nccs5)ccc34)ccc12 [Example 30],< 1 nM
4,"CCN(CC)CCOc1ccc2c(Oc3ccc4c(C(=O)NC5CC5)c(C)oc4c3)ccnc2c1 [Example 91, N-cyclopropyl-2-methyl-6-({7-[2-(diethylamino)ethoxy]quinolin-4-yl}oxy)-1-benzofuran-3-carboxamide]",< 1 nM
5,"CNC(=O)c1c(C)n(C)c2cc(Oc3ccnc4cc(OCCN5CCOCC5)ccc34)ccc12 [Example 77, N,1,2-trimethyl-6-{[7-(2-morpholin-4-ylethoxy)quinolin-4-yl]oxy}-1H-indole-3-carboxamide]",> 10 nM
6,"CNC(=O)c1c(C)oc2cc(Oc3ccnc4cc(C(F)(F)F)ccc34)ccc12 [Example 61, N,2-dimethyl-6-{[7-(trifluoromethyl)quinolin-4-yl]oxy}-1-benzofuran-3-carboxamide]",> 10 nM
7,CNC(=O)c1c(C)oc2cc(Oc3ccnc4cc(OCc5ccccn5)ccc34)ccc12 [Example 33],1 to 10 nM
8,"Cc1oc2cc(Oc3ccnc4cc(-c5ncccn5)ccc34)ccc2c1C(=O)NC1CC1 [Example 89, N-cyclopropyl-2-methyl-6-[(7-pyrimidin-2-ylquinolin-4-yl)oxy]-1-benzofuran-3-carboxamide]",< 1 nM
9,"CNC(=O)c1c(C)oc2cc(Oc3ccnc4ccc(-c5ccncc5)cc34)ccc12 [Example 24, N,2-dimethyl-6-[(6-pyridin-4-ylquinolin-4-yl)oxy]-1-benzofuran-3-carboxamide]",1 to 10 nM
10,"CNCCOc1ccc2c(Oc3ccc4c(C(=O)NC5CC5)c(C)oc4c3)ccnc2c1 [Example 90, N-cyclopropyl-2-methyl-6-({7-[2-(methylamino)ethoxy]quinolin-4-yl}oxy)-1-benzofuran-3-carboxamide]",< 1 nM
11,"CNC(=O)n1c(C)cc2cc(Nc3ccnc4cc(-c5cccnc5)ccc34)ccc21 [Example 12, N,2-dimethyl-5-[(7-pyridin-3-ylquinolin-4-yl)amino]-1H-indole-1-carboxamide]",> 10 nM
12,"Cc1oc2cc(Oc3ccnc4cc(OCCNC(C)C)ccc34)ccc2c1C(=O)NC1CC1 [Example 95, N-cyclopropyl-6-({7-[2-(isopropylamino)ethoxy]quinolin-4-yl}oxy)-2-methyl-1-benzofuran-3-carboxamide]",< 1 nM
13,"CNC(=O)c1c(C)n(C)c2cc(Oc3ccnc4cc(OCCN5CCCCC5)ccc34)ccc12 [Example 79, N,1,2-trimethyl-6-{[7-(2-piperidin-1-ylethoxy)quinolin-4-yl]oxy}-1H-indole-3-carboxamide]",> 10 nM

# Next, values leading:
row,Ki,Compound
1,> 10 nM,"CNC(=O)c1c(C)sc2cc(Oc3ccnc4cc(C(F)(F)F)ccc34)ccc12 [Example 60, N,2-dimethyl-6-{[7-(trifluoromethyl)quinolin-4-yl]oxy}-1-benzothiophene-3-carboxamide]"
2,> 10 nM,CNC(=O)c1c(C)n(C)c2cc(Oc3ccnc4cc(O)ccc34)ccc12 [Example 76]
3,> 10 nM,"COc1ccc2c(Oc3ccc4c(C(=O)NCC(C)O)c(C)sc4c3)ccnc2c1 (stereo not drawn) [Example 80, N(2-hydroxypropyl)-6-[(7-methoxyquinolin-4-yl)oxy]-2-methyl-1-benzothiophene3-carboxamide]"
4,> 10 nM,"CCCNC(=O)c1c(C)sc2cc(Oc3ccnc4cc(O)ccc34)ccc12 [Example 55, 6-[(7-hydroxyquinolin-4-yl)oxy]-2-methyl-N-propyl-1-benzothiophene-3-carboxamide]"
5,> 10 nM,"CNC(=O)c1c(C)sc2cc(Oc3ccnc4cc(-c5ncccn5)ccc34)ccc12 [Example 18, N,2-dimethyl-6-[(7-pyrimidin-2-ylquinolin-4-yl)oxy]-1-benzothiophene-3-carboxamide]"
6,> 10 nM,"COc1ccc2c(Oc3ccc4c(C(=O)NCCN(C)C)c(C)sc4c3)ccnc2c1 [Example 49, N-[2-(dimethylamino)ethyl]-6-[(7-methoxyquinolin-4-yl)oxy]-2-methyl-1-benzothiophene-3-carboxamide]"
7,1 to 10 nM,"CNC(=O)c1c(C)oc2cc(Oc3ccnc4cc(C(=O)N5CCC[C@H]5COC)ccc34)ccc12 [Example 15, 6-[(7-([(2S)-2-(methoxymethyl)pyrrolidin-1-yl]carbonyl}quinolin-4-yl)oxy]-N,2-dimethyl-1-benzofuran-3-carboxamide]"
8,> 10 nM,"COc1ccc2c(Oc3ccc4c(C(=O)NCCC(C)O)c(C)sc4c3)ccnc2c1 (stereo not drawn) [Example 82, N-(3-hydroxybutyl)-6-[(7-methoxyquinolin-4-yl)oxy]-2-methyl-1-benzothiophene-3-carboxamide]"
9,> 10 nM,"CCC(O)CNC(=O)c1c(C)sc2cc(Oc3ccnc4cc(OC)ccc34)ccc12 (stereo not drawn) [Example 81, N-(2-hydroxybutyl)-6-[(7-methoxyquinolin-4-yl)oxy]-2-methyl-1-benzothiophene-3-carboxamide]"
10,> 10 nM,"CNC(=O)c1c(C)sc2cc(Oc3ccnc4cc(C(=O)N5CCC[C@H]5COC)ccc34)ccc12 [Example 16, 6-[(7-{[(2S)-2-(methoxymethyl)pyrrolidin-1-yl]carbonyl)quinolin-4-yl)oxy]-N,2-dimethyl-1-benzothiophene-3-carboxamide]"
11,> 10 nM,"Cc1sc2cc(Oc3ccnc4cc(O)ccc34)ccc2c1C(=O)NCCN(C)C [Example 57, N-[2-(dimethylamino)ethyl]-6-[(7-hydroxyquinolin-4-yl)oxy]-2-methyl-1-benzothiophene-3-carboxamide]"
12,> 10 nM,"CNC(=O)c1c(C)sc2cc(Oc3ccnc4ccc(O)cc34)ccc12 [Example 27, 6-[(6-hydroxyquinolin-4-yl)oxy]-N,2-dimethyl-1-benzothiophene-3-carboxamide]"
13,1 to 10 nM,"COc1ccc2c(Oc3ccc4c(C(=O)NC(C)C)c(C)sc4c3)ccnc2c1 [Example 71, N-isopropyl-6-[(7-methoxyquinolin-4-yl)oxy]-2-methyl-1-benzothiophene-3-carboxamide]"
14,< 1 nM,"CNC(=O)c1c(C)oc2cc(Oc3ccnc4cc(OCC5OCCO5)ccc34)ccc12 [Example 83, 6-{[7-(1,3-dioxolan-2-ylmethoxy)quinolin-4-yl]oxy}-N,2-dimethyl-1-benzofuran-3-carboxamide]"
15,> 10 nM,"CNC(=O)c1c(C)sc2cc(Oc3ccnc4ccc(-c5ccncc5)cc34)ccc12 [Example 23, N,2-dimethyl-6-[(6-pyridin-4-ylquinolin-4-yl)oxy]-1-benzothiophene-3-carboxamide]"
16,> 10 nM,"COc1ccc2c(Oc3ccc4c(C(=O)NC[C@@H]5CCCO5)c(C)oc4c3)ccnc2c1 [Example 85, 6-[(7-methoxyquinolin-4-yl)oxy]-2-methyl-N-[(2S)-tetrahydrofuran-2-ylmethyl]-1-benzofuran-3-carboxamide]"
17,> 10 nM,"CNC(=O)c1c(C)sc2cc(Oc3ccnc4cc(Br)ccc34)ccc12 [Example 20, 6-[(7-bromoquinolin-4-yl)oxy]-N,2-dimethy-1-benzothiophene-3-carboxamide]"
